Measured values as given in publication PMC6934184, “Selective DNA-PKcs inhibition extends the therapeutic index of localized radiotherapy and chemotherapy” (The Journal of Clinical Investigation, 2019).

Target: T1, MERTK (cMER) (Homo sapiens, UniProt Q12866)
T1 construct: purchased Thermo Fisher Scientific (Life Technologies) SelectScreen
Assay: SelectScreen Z'LYTE
Assay type: biochemical
Method in brief: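 NU5455 was profiled across the SelectScreen Broad panel of kinase activity and binding assays. Z'LYTE reactions such as CSF1R ran at apparent Km ATP, while the Adapta CAMK1 assay used ATP listed as 10. Values are given as percent.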

T1 sequence (Q12866 21-999): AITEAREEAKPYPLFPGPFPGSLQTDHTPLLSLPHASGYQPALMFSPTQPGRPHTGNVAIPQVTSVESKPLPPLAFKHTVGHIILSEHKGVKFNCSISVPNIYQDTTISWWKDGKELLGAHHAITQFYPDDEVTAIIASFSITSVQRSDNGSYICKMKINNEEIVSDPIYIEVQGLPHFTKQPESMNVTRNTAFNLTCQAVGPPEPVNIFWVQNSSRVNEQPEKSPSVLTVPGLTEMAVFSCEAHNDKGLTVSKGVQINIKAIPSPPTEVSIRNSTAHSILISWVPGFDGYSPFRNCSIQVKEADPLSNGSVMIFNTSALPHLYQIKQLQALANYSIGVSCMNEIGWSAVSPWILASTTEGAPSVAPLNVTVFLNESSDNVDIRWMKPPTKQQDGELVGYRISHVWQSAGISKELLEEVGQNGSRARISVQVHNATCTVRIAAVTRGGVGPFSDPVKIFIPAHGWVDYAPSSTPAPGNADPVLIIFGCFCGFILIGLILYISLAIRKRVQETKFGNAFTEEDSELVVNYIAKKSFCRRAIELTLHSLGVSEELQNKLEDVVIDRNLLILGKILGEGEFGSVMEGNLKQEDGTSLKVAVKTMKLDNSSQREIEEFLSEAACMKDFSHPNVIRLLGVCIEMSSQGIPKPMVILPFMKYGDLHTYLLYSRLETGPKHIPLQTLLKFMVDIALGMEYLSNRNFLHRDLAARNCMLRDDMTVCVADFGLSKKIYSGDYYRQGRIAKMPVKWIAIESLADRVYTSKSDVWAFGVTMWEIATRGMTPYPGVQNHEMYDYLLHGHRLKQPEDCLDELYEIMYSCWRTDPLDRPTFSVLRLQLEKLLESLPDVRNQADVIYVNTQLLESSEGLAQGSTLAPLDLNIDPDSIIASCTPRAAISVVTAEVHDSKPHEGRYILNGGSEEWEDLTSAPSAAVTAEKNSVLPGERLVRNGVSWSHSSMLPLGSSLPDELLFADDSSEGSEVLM

**Q.** How did the inhibition at 1 µM turn out when `CN(C(=O)CN1CCOCC1)c1ccc2sc3c(-c4cccc5c(=O)cc(N6CC7CCC(C6)O7)oc45)cccc3c2c1` [NU5455] was run?
**A.** 8.3%
